Assay results as given in article PMC7216583 (Parasites & Vectors, 2020).
Counter-ions that a name gives are not always drawn. Like-named read-outs stand apart in the source and are kept apart here.

Assays:
[1] = in vitro; details: human
[2] = test system: VEGFR-2; set-up: method as in vendor brief description; details: ref vendor brief description; cited from earlier work
[3] = test system: Ret; set-up: method as in vendor brief description; details: ref vendor brief description; cited from earlier work
[4] = test system: Kit; set-up: method as in vendor brief description; details: ref vendor brief description; cited from earlier work
[5] = test system: Flt-1; set-up: method as in vendor brief description; details: ref vendor brief description; cited from earlier work
[6] = test system: Flt-4; set-up: method as in vendor brief description; details: ref vendor brief description; cited from earlier work
[7] = test system: AXL; set-up: method as in vendor brief description; details: ref vendor brief description; cited from earlier work
[8] = test system: Toxoplasma gondii RH-2F tachyzoites; test: microbe, parasite or virus in culture; details: 72 h
[9] = biological target: 5-HT7 receptor; set-up: method as in vendor brief description; details: ref vendor brief description; cited from earlier work
[10] = test system: dopamine D2; set-up: method as in vendor brief description; details: ref vendor brief description; cited from earlier work
[11] = test system: 5-HT2A; set-up: method as in vendor brief description; details: ref vendor brief description; cited from earlier work
[12] = test system: 5-HT1A; set-up: method as in vendor brief description; details: ref vendor brief description; cited from earlier work
[13] = test system: noradrenaline α2C; set-up: method as in vendor brief description; details: ref vendor brief description; cited from earlier work
[14] = biological target: angiotensin II type 1 (AT1) receptor; set-up: method as in vendor brief description; details: ref vendor brief description; cited from earlier work
[15] = test system: 20S proteasome β5; set-up: method as in vendor brief description; details: read-out: IC50 CT-L activity of 20S proteasome β5; ref vendor brief description; cited from earlier work
[16] = test system: LMP7; set-up: method as in vendor brief description; details: read-out: IC50 CT-L activity of 20S proteasome LMP7; ref vendor brief description; cited from earlier work
[17] = biological target: H3K27 histone demethylase JMJD3/UTX; set-up: method as in vendor brief description; details: ref vendor brief description; cited from earlier work
[18] = biological target: tyrosinase; set-up: method as in vendor brief description; details: ref vendor brief description; cited from earlier work
[19] = test system: β3-adrenoceptor; set-up: method as in vendor brief description; details: ref vendor brief description; cited from earlier work
[20] = test system: Toxoplasma gondii RH-2F tachyzoites
[21] = biological target: myeloperoxidase; details: read-out: IC50 myeloperoxidase; ref vendor brief description; cited from earlier work
[22] = biological target: N-methyl-D-aspartate (NMDA) receptor; set-up: method as in vendor brief description; details: ref vendor brief description; cited from earlier work
[23] = test system: sodium channel; set-up: method as in vendor brief description; details: ref vendor brief description; cited from earlier work
[24] = test system: nAChR; set-up: method as in vendor brief description; details: ref vendor brief description; cited from earlier work
[25] = biological target: 5-HT3; set-up: method as in vendor brief description; details: ref vendor brief description; cited from earlier work
[26] = test system: GSK-3β; set-up: method as in vendor brief description; details: ref vendor brief description; cited from earlier work
[27] = test system: PI3Kγ; set-up: method as in vendor brief description; details: ref vendor brief description; cited from earlier work
[28] = test system: CYP2C9; set-up: method as in vendor brief description; details: ref vendor brief description; cited from earlier work
[29] = test system: 4-hydroxylation; set-up: method as in vendor brief description; details: ref vendor brief description; cited from earlier work
[30] = test system: nonsense mutation; details: ref vendor brief description; read-out: EC50 nonsense mutation inhibition; cited from earlier work
[31] = biological target: human muscarinic AChR M1; set-up: method as in vendor brief description; details: ref vendor brief description; cited from earlier work
[32] = biological target: human muscarinic AChR M2; set-up: method as in vendor brief description; details: ref vendor brief description; cited from earlier work
[33] = biological target: human muscarinic AChR M3; set-up: method as in vendor brief description; details: ref vendor brief description; cited from earlier work
[34] = biological target: human muscarinic AChR M4; set-up: method as in vendor brief description; details: ref vendor brief description; cited from earlier work
[35] = biological target: human muscarinic AChR M5; set-up: method as in vendor brief description; details: ref vendor brief description; cited from earlier work
[36] = test system: Factor Xa; set-up: method as in vendor brief description; details: ref vendor brief description; cited from earlier work
[37] = biological target: β-adrenoceptor; set-up: method as in vendor brief description; details: ref vendor brief description; cited from earlier work
[38] = test system: S1P; set-up: method as in vendor brief description; details: ref vendor brief description; cited from earlier work
[39] = biological target: recombinant human mGlu2; set-up: method as in vendor brief description; details: ref vendor brief description; cited from earlier work
[40] = biological target: recombinant human mGlu3 receptors; set-up: method as in vendor brief description; details: ref vendor brief description; cited from earlier work
[41] = biological target: rat neurons expressing native mGlu2/3 receptors; set-up: method as in vendor brief description; details: ref vendor brief description; cited from earlier work
[42] = test system: PDE5; details: read-out: IC50 PDE5; ref vendor brief description; cited from earlier work
[43] = test system: class I PI3K; set-up: method as in library vendor description; details: ref library vendor description; read-out: IC50 pan-class I PI3K; cited from earlier work
[44] = test system: P-glycoprotein; details: cited from earlier work
[45] = biological target: β2-adrenergic receptor; set-up: method as in vendor brief description; details: ref vendor brief description; cited from earlier work
[46] = biological target: histamine 1 (H1) receptor; set-up: method as in vendor brief description; details: ref vendor brief description; cited from earlier work
[47] = biological target: PAFR; set-up: method as in vendor brief description; details: ref vendor brief description; cited from earlier work
[48] = test system: HSP90α; details: read-out: IC50 HSP90α; ref library vendor description; cited from earlier work
[49] = read-out: Parasite inhibition (%) mean, preliminary screen of compound library, mean
[50] = read-out: Parasite inhibition (%) mean, preliminary screen, mean

Compound: COc1cc2nccc(Oc3ccc(NC(=O)C4(C(=O)Nc5ccc(F)cc5)CC4)cc3)c2cc1OC [Cabozantinib malate]
- viability at 72 h ([1]; Host viability (%) mean): 43.1%
- IC50 [2]: 0.035 nM
- IC50 [5]: 12 nM
- IC50 [6]: 6 nM
- inhibition of growth at 5 µM [8, 49]: 80.4%

Compound: O=C1[C@@H]2[C@H]3CC[C@H](C3)[C@@H]2C(=O)N1C[C@@H]1CCCC[C@H]1CN1CCN(c2nsc3ccccc23)CC1 [Lurasidone HCl, reference compound]
- viability [1]: 86.9%
- viability at 5 µM [1]: 86.9 ± 1.7%
- IC50 [9]: 0.495 nM
- IC50 [11]: 2.03 nM
- IC50 [12]: 6.75 nM
- IC50 [13]: 10.8 nM
- inhibition at 5 µM ([8]; read-out: Parasite inhibition (%) Mean ± SD): 80.4 ± 1.5%

Compound: CCOc1nc2cccc(C(=O)O)c2n1Cc1ccc(-c2ccccc2-c2nc(=O)o[nH]2)cc1 [Azilsartan (TAK-536)]
- IC50 [14]: 2.6 nM
- inhibition of growth at 5 µM [8, 49]: 4.6%

Compound: COC[C@H](NC(=O)c1cnc(C)s1)C(=O)N[C@@H](COC)C(=O)N[C@@H](Cc1ccccc1)C(=O)C1(C)CO1 (some centres unmarked) [Oprozomib (ONX 0912)]
- IC50 [15]: 36 nM
- IC50 [16]: 82 nM
- inhibition of growth at 5 µM [8, 49]: 9%

Compound: O=C(O)CCNc1cc(N2CCc3ccccc3CC2)nc(-c2ccccn2)n1 [GSK J1]
- IC50 [17]: 60 nM

Compound: Oc1ccc(OC2CCCCO2)cc1 (centres unmarked) [Deoxyarbutin]
- IC50 [18]: 50 nM
- inhibition of growth at 5 µM [8, 49]: 33.4%

Compound: Nc1nc(CC(=O)Nc2ccc(CCNC[C@H](O)c3ccccc3)cc2)cs1 [Mirabegron (YM178)]
- EC50 [19]: 22.4 nM
- inhibition of growth at 5 µM [8, 49]: 3.8%

Compound: O=N[O-].[Na+] [Sodium Nitrite]
- Parasite inhibition (%) mean [20]: 49.5%
- IC50 [21]: 1300 nM

Compound: CCN(CC)CCOC(=O)c1ccc(N)cc1 [Procaine (Novocaine) HCl]
- IC50 [22]: 296000 nM
- IC50 [23]: 60000 nM
- IC50 [24]: 45500 nM
- Kd [25]: 1700 nM
- inhibition of growth at 5 µM [8, 49]: 3.7%

Compound: Cn1sc(=O)n(Cc2ccccc2)c1=O [TDZD-8]
- IC50 [26]: 2000 nM
- inhibition of growth at 5 µM [8, 49]: 12.8%

Compound: C[C@H](Nc1ncnc2[nH]cnc12)c1cc2cccc(Cl)c2c(=O)n1-c1ccccc1 [IPI-145 (INK1197)]
- IC50 [27]: 50 nM
- inhibition of growth at 5 µM [8, 49]: 1.9%

Compound: CCCSc1nc(N[C@@H]2C[C@H]2c2ccc(F)c(F)c2)c2nnn([C@@H]3C[C@H](OCCO)[C@@H](O)[C@H]3O)c2n1 [Ticagrelor]
- IC50 [28]: 10500 nM
- inhibition of growth at 5 µM [8, 49]: 4.7%

Compound: O=C(O)c1cccc(-c2noc(-c3ccccc3F)n2)c1 [PTC124 (Ataluren)]
- EC50 [30]: ~100 nM
- inhibition of growth at 5 µM [8, 49]: -0.1%

Compound: O=C(O[C@H]1C[N+]2(CCCOc3ccccc3)CCC1CC2)C(O)(c1cccs1)c1cccs1 [Aclidinium Bromide]
- Ki [31]: 0.1 nM
- Ki [32]: 0.14 nM
- Ki [33]: 0.14 nM
- Ki [34]: 0.21 nM
- Ki [35]: 0.16 nM
- inhibition of growth at 5 µM ([8]; read-out: Parasite inhibition (%) mean): 1.8%

Compound: O=C(NCC1CN(c2ccc(N3CCOCC3=O)cc2)C(=O)O1)c1ccc(Cl)s1 (centres unmarked) [Rivaroxaban (Xarelto)]
- inhibition of growth at 5 µM [8, 49]: 0.4%

Compound: CCc1cc2c(cc1CC)CC(NC[C@H](O)c1ccc(O)c3[nH]c(=O)ccc13)C2 [Indacaterol Maleate]
- pKi β-adrenoceptor [37]: Indacaterol is an ultra-long-acting β-adrenoceptor agonist with pKi of 7.36.
- inhibition of growth at 5 µM [8, 49]: -8.9%

Compound: CCCCCCCCc1ccc(CCC(N)(CO)CO)cc1 [Fingolimod (FTY720)]
- IC50 [38]: 0.033 nM
- inhibition of growth at 5 µM [8, 49]: 10%

Compound: N[C@@]1(C(=O)O)CS(=O)(=O)[C@H]2[C@H](C(=O)O)[C@H]21 [LY2140023 (LY404039)]
- Ki [39]: 149 nM
- Ki [40]: 92 nM
- Ki [41]: 88 nM
- inhibition of growth at 5 µM [8, 49]: 2.9%

Compound: COc1ccc(CN=c2[nH]c(N3CCC[C@H]3CO)ncc2C(=O)NCc2ncccn2)cc1Cl [Avanafil]
- IC50 [42]: 1 nM
- inhibition of growth at 5 µM [8, 49]: 7.5%

Compound: FC(F)c1nc2ccccc2n1-c1nc(N2CCOCC2)nc(N2CCOCC2)n1 [ZSTK474]
- IC50 [43]: 37 nM
- inhibition of growth at 5 µM [8, 50]: 49.8%

Compound: COC1CCN(C(=O)c2cc(Cc3n[nH]c(=O)c4ccccc34)ccc2F)CC1 [AZD2461]
- P-glycoprotein substrate property [44]: AZD2461 is a poor P-glycoprotein substrate with lower affinity for Pgp than does olaparib.
- inhibition of growth at 5 µM [8, 49]: 11%

Compound: CC(C)(C)NCC(O)c1cc(O)cc(O)c1 (centres unmarked) [Terbutaline Sulfate]
- IC50 [45]: 53 nM
- inhibition of growth at 5 µM [8, 49]: 40.1%

Compound: Cc1cncc(CN2CCC(=C3c4ccc(Cl)cc4CCc4cccnc43)CC2)c1 [Rupatadine Fumarate]
- Ki [46]: 102 nM
- Ki [47]: 550 nM
- inhibition of growth at 5 µM [8, 49]: 0.2%

Compound: CCNC(=O)c1noc(-c2cc(C(C)C)c(O)cc2O)c1-c1ccc(CN2CCOCC2)cc1 [AUY922 (NVP-AUY922)]
- inhibition of growth at 5 µM [8, 50]: 8.2%
